Results published in PubChem BioAssay (NCI).
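Method: 48-hour compound exposure of cells in 96-well plates, five concentrations, linear interpolation of endpoints. GI50: concentration for 50% inhibition of growth. TGI: total growth inhibition.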

Assays:
Assay in all cases: NCI-60 cell line screen, 48 h
SF-295 CNS = test system: SF-295 CNS
HL-60(TB) leukemia = test system: HL-60(TB) leukemia
SK-OV-3 ovarian = test system: SK-OV-3 ovarian
SF-539 CNS = test system: SF-539 CNS
NCI-H226 lung = test system: NCI-H226 lung
RXF 393 renal = test system: RXF 393 renal
HOP-92 NSCLC = test system: HOP-92 NSCLC
HCC-2998 colon = test system: HCC-2998 colon
NCI/ADR-RES ovarian = test system: NCI/ADR-RES ovarian
MCF7 breast = test system: MCF7 breast
KM12 colon = test system: KM12 colon
HCT-15 colon = test system: HCT-15 colon
SNB-75 CNS = test system: SNB-75 CNS
LOX IMVI melanoma = test system: LOX IMVI melanoma
MDA-MB-231 breast = test system: MDA-MB-231 breast
M14 melanoma = test system: M14 melanoma
CCRF-CEM leukemia = test system: CCRF-CEM leukemia
NCI-H23 lung = test system: NCI-H23 lung
K-562 leukemia = test system: K-562 leukemia
EKVX NSCLC = test system: EKVX NSCLC
TK-10 renal = test system: TK-10 renal
NCI-H522 lung = test system: NCI-H522 lung
MOLT-4 leukemia = test system: MOLT-4 leukemia
SK-MEL-5 melanoma = test system: SK-MEL-5 melanoma
HT29 colon = test system: HT29 colon
NCI-H460 lung = test system: NCI-H460 lung
HCT-116 colon = test system: HCT-116 colon
BT-549 breast = test system: BT-549 breast
U251 CNS = test system: U251 CNS
A498 renal = test system: A498 renal
HOP-62 NSCLC = test system: HOP-62 NSCLC
ACHN renal = test system: ACHN renal
SW-620 colon = test system: SW-620 colon
SF-268 CNS = test system: SF-268 CNS
RPMI-8226 leukemia = test system: RPMI-8226 leukemia
DU-145 prostate = test system: DU-145 prostate
IGROV1 ovarian = test system: IGROV1 ovarian
786-0 renal = test system: 786-0 renal
UO-31 renal = test system: UO-31 renal
T-47D breast = test system: T-47D breast
A549 NSCLC = test system: A549 NSCLC
OVCAR-5 ovarian = test system: OVCAR-5 ovarian
SK-MEL-2 melanoma = test system: SK-MEL-2 melanoma
MDA-MB-435 = test system: MDA-MB-435
MALME-3M melanoma = test system: MALME-3M melanoma
UACC-257 melanoma = test system: UACC-257 melanoma
SN12C renal = test system: SN12C renal
CAKI-1 renal = test system: CAKI-1 renal
OVCAR-3 ovarian = test system: OVCAR-3 ovarian
UACC-62 melanoma = test system: UACC-62 melanoma
SR leukemia = test system: SR leukemia
OVCAR-4 ovarian = test system: OVCAR-4 ovarian
OVCAR-8 ovarian = test system: OVCAR-8 ovarian
PC-3 prostate = test system: PC-3 prostate

Question: `C[C@]12CCC3c4ccc(O)cc4CCC3C1CC[C@@]2(O)C#Cc1ccc(C#C/C=C\C#Cc2ccccc2N)cc1` (stereo partly drawn) was tested. Which GI50 (SF-295 CNS) did it give?
Answer: 17.1 µM

Question: What about the TGI (SF-295 CNS) of the same molecule?
Answer: > 100 µM

Question: What about the GI50 (HL-60(TB) leukemia) of the same molecule?
Answer: 26.7 µM

Question: And the TGI (HL-60(TB) leukemia)?
Answer: > 100 µM

Question: What about the GI50 (SK-OV-3 ovarian) of the same molecule?
Answer: 39.7 µM

Question: And the TGI (SK-OV-3 ovarian)?
Answer: > 100 µM

Question: What about the GI50 (SF-539 CNS) of the same molecule?
Answer: 21.3 µM

Question: And the TGI (SF-539 CNS)?
Answer: 52.6 µM

Question: What about the GI50 (NCI-H226 lung) of the same molecule?
Answer: 20.2 µM

Question: What about the TGI (NCI-H226 lung) of the same molecule?
Answer: 48.2 µM

Question: What about the GI50 (RXF 393 renal) of the same molecule?
Answer: 36.3 µM

Question: What about the TGI (RXF 393 renal) of the same molecule?
Answer: > 100 µM

Question: What about the GI50 (HOP-92 NSCLC) of the same molecule?
Answer: 16 µM

Question: What about the TGI (HOP-92 NSCLC) of the same molecule?
Answer: 46.5 µM

Question: And the GI50 (HCC-2998 colon)?
Answer: 25.6 µM

Question: And the TGI (HCC-2998 colon)?
Answer: 54.5 µM

Question: What about the GI50 (NCI/ADR-RES ovarian) of the same molecule?
Answer: 17.7 µM

Question: And the TGI (NCI/ADR-RES ovarian)?
Answer: 52.2 µM

Question: And the GI50 (MCF7 breast)?
Answer: 308 nM

Question: What about the TGI (MCF7 breast) of the same molecule?
Answer: > 100 µM

Question: What about the GI50 (KM12 colon) of the same molecule?
Answer: 9.66 µM

Question: What about the TGI (KM12 colon) of the same molecule?
Answer: > 100 µM

Question: And the GI50 (HCT-15 colon)?
Answer: 22.2 µM

Question: What about the TGI (HCT-15 colon) of the same molecule?
Answer: > 100 µM

Question: And the GI50 (SNB-75 CNS)?
Answer: > 100 µM

Question: What about the TGI (SNB-75 CNS) of the same molecule?
Answer: > 100 µM

Question: And the GI50 (LOX IMVI melanoma)?
Answer: 35.8 µM

Question: What about the TGI (LOX IMVI melanoma) of the same molecule?
Answer: > 100 µM

Question: What about the GI50 (MDA-MB-231 breast) of the same molecule?
Answer: 21 µM

Question: And the TGI (MDA-MB-231 breast)?
Answer: 53.5 µM

Question: What about the GI50 (M14 melanoma) of the same molecule?
Answer: 29.5 µM

Question: What about the TGI (M14 melanoma) of the same molecule?
Answer: > 100 µM

Question: What about the GI50 (CCRF-CEM leukemia) of the same molecule?
Answer: > 100 µM

Question: And the TGI (CCRF-CEM leukemia)?
Answer: > 100 µM

Question: What about the GI50 (NCI-H23 lung) of the same molecule?
Answer: 26.5 µM

Question: What about the TGI (NCI-H23 lung) of the same molecule?
Answer: > 100 µM

Question: And the GI50 (K-562 leukemia)?
Answer: 12.4 µM

Question: What about the TGI (K-562 leukemia) of the same molecule?
Answer: 86.5 µM

Question: And the GI50 (EKVX NSCLC)?
Answer: 20.3 µM

Question: What about the TGI (EKVX NSCLC) of the same molecule?
Answer: 65.5 µM

Question: And the GI50 (TK-10 renal)?
Answer: 36.6 µM

Question: What about the TGI (TK-10 renal) of the same molecule?
Answer: > 100 µM

Question: What about the GI50 (NCI-H522 lung) of the same molecule?
Answer: 17 µM

Question: And the TGI (NCI-H522 lung)?
Answer: > 100 µM

Question: And the GI50 (MOLT-4 leukemia)?
Answer: 57.5 µM

Question: What about the TGI (MOLT-4 leukemia) of the same molecule?
Answer: > 100 µM

Question: And the GI50 (SK-MEL-5 melanoma)?
Answer: 17.9 µM

Question: What about the TGI (SK-MEL-5 melanoma) of the same molecule?
Answer: 41 µM

Question: And the GI50 (HT29 colon)?
Answer: 25.8 µM

Question: And the TGI (HT29 colon)?
Answer: > 100 µM

Question: What about the GI50 (NCI-H460 lung) of the same molecule?
Answer: 12.6 µM

Question: What about the TGI (NCI-H460 lung) of the same molecule?
Answer: > 100 µM

Question: What about the GI50 (HCT-116 colon) of the same molecule?
Answer: 12.3 µM

Question: And the TGI (HCT-116 colon)?
Answer: > 100 µM

Question: And the GI50 (BT-549 breast)?
Answer: 19.2 µM

Question: And the TGI (BT-549 breast)?
Answer: 45.1 µM

Question: What about the GI50 (U251 CNS) of the same molecule?
Answer: 19 µM

Question: And the TGI (U251 CNS)?
Answer: 80.4 µM

Question: And the GI50 (A498 renal)?
Answer: 21.7 µM

Question: And the TGI (A498 renal)?
Answer: 41 µM

Question: What about the GI50 (HOP-62 NSCLC) of the same molecule?
Answer: 28.7 µM

Question: And the TGI (HOP-62 NSCLC)?
Answer: 70 µM

Question: What about the GI50 (ACHN renal) of the same molecule?
Answer: 17.8 µM

Question: What about the TGI (ACHN renal) of the same molecule?
Answer: 43.6 µM

Question: And the GI50 (SW-620 colon)?
Answer: 40 µM

Question: And the TGI (SW-620 colon)?
Answer: > 100 µM

Question: What about the GI50 (SF-268 CNS) of the same molecule?
Answer: 24.8 µM

Question: And the TGI (SF-268 CNS)?
Answer: > 100 µM

Question: And the GI50 (RPMI-8226 leukemia)?
Answer: 7.56 µM

Question: And the TGI (RPMI-8226 leukemia)?
Answer: 79.7 µM

Question: What about the GI50 (DU-145 prostate) of the same molecule?
Answer: 23.9 µM

Question: What about the TGI (DU-145 prostate) of the same molecule?
Answer: > 100 µM

Question: And the GI50 (IGROV1 ovarian)?
Answer: 87.1 µM

Question: What about the TGI (IGROV1 ovarian) of the same molecule?
Answer: > 100 µM

Question: What about the GI50 (786-0 renal) of the same molecule?
Answer: 20.5 µM

Question: What about the TGI (786-0 renal) of the same molecule?
Answer: 57.5 µM

Question: And the GI50 (UO-31 renal)?
Answer: 15.9 µM

Question: What about the TGI (UO-31 renal) of the same molecule?
Answer: 85.1 µM

Question: And the GI50 (T-47D breast)?
Answer: > 100 µM

Question: What about the TGI (T-47D breast) of the same molecule?
Answer: > 100 µM

Question: And the GI50 (A549 NSCLC)?
Answer: 32.9 µM

Question: And the TGI (A549 NSCLC)?
Answer: > 100 µM

Question: What about the GI50 (OVCAR-5 ovarian) of the same molecule?
Answer: 38.4 µM

Question: And the TGI (OVCAR-5 ovarian)?
Answer: > 100 µM

Question: What about the GI50 (SK-MEL-2 melanoma) of the same molecule?
Answer: 42.2 µM

Question: And the TGI (SK-MEL-2 melanoma)?
Answer: > 100 µM

Question: What about the GI50 (MDA-MB-435) of the same molecule?
Answer: 31.7 µM

Question: What about the TGI (MDA-MB-435) of the same molecule?
Answer: > 100 µM

Question: And the GI50 (MALME-3M melanoma)?
Answer: 17.2 µM

Question: What about the TGI (MALME-3M melanoma) of the same molecule?
Answer: 48.1 µM

Question: And the GI50 (UACC-257 melanoma)?
Answer: 28.7 µM

Question: What about the TGI (UACC-257 melanoma) of the same molecule?
Answer: > 100 µM

Question: And the GI50 (SN12C renal)?
Answer: 21.7 µM

Question: And the TGI (SN12C renal)?
Answer: 61.1 µM

Question: What about the GI50 (CAKI-1 renal) of the same molecule?
Answer: 20.6 µM

Question: What about the TGI (CAKI-1 renal) of the same molecule?
Answer: 68.6 µM

Question: And the GI50 (OVCAR-3 ovarian)?
Answer: 13.8 µM

Question: And the TGI (OVCAR-3 ovarian)?
Answer: 48 µM

Question: What about the GI50 (UACC-62 melanoma) of the same molecule?
Answer: 15.2 µM

Question: What about the TGI (UACC-62 melanoma) of the same molecule?
Answer: 41.2 µM

Question: And the GI50 (SR leukemia)?
Answer: > 100 µM

Question: And the TGI (SR leukemia)?
Answer: > 100 µM

Question: And the GI50 (OVCAR-4 ovarian)?
Answer: 23.6 µM

Question: And the TGI (OVCAR-4 ovarian)?
Answer: > 100 µM

Question: What about the GI50 (OVCAR-8 ovarian) of the same molecule?
Answer: 47.4 µM

Question: And the TGI (OVCAR-8 ovarian)?
Answer: > 100 µM

Question: And the GI50 (PC-3 prostate)?
Answer: 15.6 µM

Question: What about the TGI (PC-3 prostate) of the same molecule?
Answer: 55.3 µM
